The subject of one series is P. berghei ANKA. The experiment in a line: Liver infection in mice, parasite 18S RNA by Real-Time PCR. The note with it: C57Bl/6 mice. Type of series: in vivo, Plasmodium berghei. The method, then: Ezeterol tablets were used to prepare a 0.3 mg/ml solution of Ezetimibe in water. Experimental C5781/6 mice were treated by oral gavage with 200 μl of Ezetimibe solution (3 mg/kg) 2 hours prior to infection with sporozoites. To control mice, 200 μl of water were administered by oral gavage. Infection with Plasmodium berghei was performed by i.v. injection of 30 000 sporozoites (see FIG. 5). For BLT-1 treatment of C57Bl/6 mice (male, 6-8 weeks old), intra-peritoneal injections of 50 mg/kg of BLT-1 in DMSO were carried out prior to infection. Control mice were treated with DMSO only. Two hours later, mice were infected by intravenous injection with 3×10^4 P. berghei sporozoites (see FIG. 12).
Mice were sacrificed 40-42 hours after infection and their livers collected. Livers were placed in 4 ml cold lysis buffer (4 M guanidine thio-cyanate, 25 mM sodium citrate, pH 7.0 and 0.5% sarcosyl) and homogenised on ice with a tissue tearer. 1 ml aliquots of liver homogenate were kept at −80° C. until RNA extraction. Total RNA was extracted from 50 μl of liver homogenate with Qiagen's RNeasy RNA extraction kit following the instructions of the manufacturer. […]
P. berghei ANKA load and ScarB1 expression in the liver was quantified by Real-Time PCR using the SYBR Green Mix (Applied Biosystems) and primers designed for the 18S RNA of the parasite and primers for ScarB1. […]

Another series concerns P. berghei. The experiment in a line: EEF development in mouse primary hepatocytes infected with P. berghei sporozoites. Type of series: cell-based, Plasmodium berghei. The note with it: 10 μM; full 24 hours of infection, first 2 hours only, or 2 hours after infection until 24 hours. The method, then:
C57B1/6 freshly isolated mouse primary hepatocytes (1×10^5 cells per well) were seeded in 700 μl of Williams E medium supplemented with 1× glutamax (Gibco/Invitrogen), 4% fetal calf serum (Gibco/Invitrogen) and 1% penicillin/streptomycin (Gibco/Invitrogen) in 24 well plates incubated at 37° C. 5% CO2. After two days cells were treated with 10 μM BLT-1 for different time points: for the full 24 hours of infection with P. berghei (5×10^5 sporozoites), only during the first 2 hours of infection, or for the time of 2 hours after infection until evaluation at 24 hours. (see FIG. 14)

The subject of the next series is Plasmodium berghei ANKA. The experiment in a line: Inhibition of EEF development in Huh-7 human hepatoma cells infected with sporozoites (immunofluorescence microscopy). Type of series: cell-based. The note with it: compound at 8 μM, 1.6 μM, 320 nM, 64 nM, 1 h before infection with 10,000 sporozoites per well. From the text: To model this infection, the inventors have developed an assay monitoring infection and maturation of Plasmodium berghei ANKA, a mouse-pathogenic close relative of the human-pathogenic Plasmodium falciparum strain, in cultured human hepatoma cells. Huh human hepatoma cells, were cultivated in RPMI (Gibco/Invitrogen) medium containing 10% FBS, 1% non-essential amino acid solution (Gibco/Invitrogen), 1% penicillin/streptomycin solution (Gibco/Invitrogen), 1% glutamine (Gibco/Invitrogen) and 1% Hepes pH 8 (Gibco/Invitrogen). 4000-6000 cells per well were seeded in a volume of 100 μl/well. Sporozoites were obtained from Anopheles stephensi mosquitoes infected with P. berghei ANKA or P. yoelii. Salivary glands were dissected and collected in RPMI medium (GIBCO) on ice. Collected tissues were gently ground in the medium to release sporozoites. Tissue fragments were removed by centrifugation at 40×g for 3 min, and sporozoites were collected from the supernatant. Blt-1, Blt-2, and Blt-4 were purchased from ChemBridge Corporation (San Diego, USA). Ezetimibe (for chemical structure see FIG. 6 and structure (XXVI)) was derived from powdered Ezeterol tablets (Essex Pharma, UK). Each compound was dissolved in DMSO at a final concentration of 50 mM. 48 hours after seeding of 6000 Huh-7 cells per well, growth medium was replaced by fresh complete culture medium, containing the compounds in 4 different concentrations, generated by dilution series of the compound stock solutions in complete growth medium: 8 μM; 1.6 μM; 320 nM; 64 nM. […] Cells were imaged using a fully automated fluorescence microscope from MDC (Molecular Devices Corporation, CA, USA). […] Numerical readouts comprised of cell proliferation as measured by the number of nuclei per imaged field (Hoechst staining), cell confluency as measured by the percentage of the imaged field covered by cells (actin/Phalloidin staining), and number of EEFs per imaged field. […] Objects in a size range of 16-150 pixels were quantified. […]

The test system of the next series is P. yoelii. The experiment in a line: P. yoelii EEF development in Hepa 1-6 cells. Type of series: cell-based, Plasmodium yoelii. To be noted: 10 μM; full 24 hours of infection, first 2 hours only, or 2 hours after infection until 24 hours. The method, then:
Hepa 1-6 cells were cultured in complete DMEM medium (Gibco/Invitrogen) supplemented with 10% fetal calf serum (Gibco/Invitrogen) and 1% penicillin/streptomycin (Gibco/Invitrogen) incubated at 37° C. and 5% CO2. Sporozoites were obtained from Anopheles stephensi mosquitoes infected with P. berghei ANKA or P. yoelii. Salivary glands were dissected and collected in RPMI medium (GIBCO) on ice. Collected tissues were gently ground in the medium to release sporozoites. Tissue fragments were removed by centrifugation at 40×g for 3 min, and sporozoites were collected from the supernatant. Cells were treated with 10 μM BLT-1 for different time points: for the full 24 hours of infection with P. yoelii (1×10^5 sporozoites), only during the first 2 hours of infection, or for the time of 2 hours after infection until evaluation of infection at 24 hours (see FIG. 15).

We go through 3 molecules from patent US8507546B2, “Use of inhibitors of scavenger receptor class proteins for the treatment of infectious diseases” (Instituto de Medicina Molecular, Faculdade de Medicina da …, priority 2006, dated 2013).

As for `CCCCCCC1CCC/C1=N\NC(N)=S` (stereo not shown) [BLT-1], the “infection rate for liver in mice” value with P. berghei ANKA (50 mg/kg intra-peritoneal in DMSO two hours before i.v. infection with 3×10^4 P. berghei sporozoites) is recorded as “reduces infection rate for liver”. For the same molecule, the “EEF development in Mouse Primary Hepatocytes” value in the series on P. berghei is “Inhibition of EEF development”. In the series with Plasmodium berghei ANKA, the “EEF (Exo-Erythrocytic Forms) development, EEF number” value (shortened to “EEF … EEF number”) is “Inhibition of EEF (Exo-Erythrocytic Forms) development”. The “P. Yoelii EEF development in Hepa 1-6 cells” value in the series with P. yoelii was “Inhibition of P. Yoelii EEF development”.
For the molecule `COc1ccccc1NC(=O)Nc1ccc2ccccc2c1` [BLT-4], the “EEF … EEF number” value with Plasmodium berghei ANKA was “Inhibition of EEF development”.
For the molecule `O=C1[C@H](CC[C@H](O)c2ccc(F)cc2)[C@@H](c2ccc(O)cc2)N1c1ccc(F)cc1` [Ezetimibe], in the series with P. berghei ANKA (3 mg/kg oral gavage 2 hours prior to i.v. infection with 30 000 sporozoites, livers 40-42 hours after infection), the “infection rate for liver in mice” value was “reduces infection rate for liver”. Also, the “EEF … EEF number” value in the series on Plasmodium berghei ANKA is given as “Inhibition of EEF development”.
